Data taken from patent US10294202B2, “Pyrrolidinones as herbicides” (FMC Corporation, priority 2013, dated 2019).

Tests used:
lambsquarters = test: Test D pre-/postemergence herbicide test; assay type: in vivo, Chenopodium album; settings: for Plant response rating: Lambsquarters, scale 0 to 100; for Plant response rating, Lambsquarters: scale 0 to 100 (0 no effect, 100 complete control)
Description: Seeds of plant species selected from bluegrass (annual bluegrass, Poa annua), blackgrass (Alopecurus myosuroides), canarygrass (littleseed canarygrass, Phalaris minor), chickweed (common chickweed, Stellaria media), galium (catchweed bedstraw, Galium aparine), bromegrass, downy (downy bromegrass, Bromus tectorum), field poppy (Papaver rhoeas), field violet (Viola arvensis), foxtail, green (green foxtail, Setaria viridis), deadnettle (henbit deadnettle, Lamium amplexicaule), ryegrass, Italian (Italian ryegrass, Lolium multiflorum), kochia (Kochia scoparia), lambsquarters (Chenopodium album), oilseed rape (Brassica napus), pigweed (Amaranthus retroflexus), chamomile (scentless chamomile, Matricaria inodora), Russian thistle (Salsola kali), speedwell (bird's-eye speedwell, Veronica persica), barley, spring (spring barley, Hordeum vulgare), wheat, spring (spring wheat, Triticum aestivum), buckwheat, wild (wild buckwheat, Polygonum convolvulus), mustard, wild (wild mustard, Sinapis arvensis), oat, wild (wild oat, Avena fatua), radish, wild (wild radish, Raphanus raphanistrum), […]), barley, winter (winter barley, Hordeum vulgare), and wheat, winter (winter wheat, Triticum aestivum) were planted into a silt loam soil and treated preemergence with test chemicals formulated in a non-phytotoxic solvent mixture which included a surfactant. At the same time, these species were planted in pots containing Redi-Earth® planting medium (Scotts Company, 14111 Scottslawn Road, Marysville, Ohio 43041) comprising spaghnum peat moss, vermiculite, wetting agent and starter nutrients and treated with postemergence applications of the test chemicals formulated in the same manner. Plants ranged in height from 2 to 18 cm (1- to 4-leaf stage). Treated plants and controls were maintained in a controlled growth environment for 7 to 21 days after which time all species were compared to controls and visually evaluated. Plant response ratings, summarized in Table D, are based on a scale of 0 to 100 where 0 is no effect and 100 is complete control. A dash (-) response means no test result.

velvetleaf = test: Test E preemergence herbicide test; assay type: in vivo, Abutilon theophrasti; parameters: key: 0 = no effect, 100 = complete control
Description: Seeds of plant species selected from corn (Zea mays), soybean (Glycine max), velvetleaf (Abutilon theophrasti), lambsquarters (Chenopodium album), wild poinsettia (Euphorbia heterophylla), pigweed, palmer (palmer pigweed, Amaranthus palmeri), waterhemp (common waterhemp, Amaranthus rudis), surinam grass (Brachiaria decumbens), crabgrass, large (large crabgrass, Digitaria sanguinalis), crabgrass, Brazil (Brazilian crabgrass, Digitaria horizontalis), panicum, fall (fall panicum, Panicum dichotomiflorum), foxtail, giant (giant foxtail, Setaria faberii), foxtail, green (green foxtail, Setaria viridis), goosegrass (Eleusine indica), johnsongrass (Sorghum halepense), ragweed (common ragweed, Ambrosia elatior), barnyardgrass (Echinochloa crus-galli), sandbur (southern sandbur, Cenchrus echinatus), arrowleaf […] rhombifolia), ryegrass, Italian (Italian ryegrass, Lolium multiflorum), dayflower, VA (Virginia dayflower, Commelina virginica), field bindweed (Convolvulus arvensis), morningglory (Ipomoea coccinea), nightshade (eastern black nightshade, Solanum ptycanthum), kochia (Kochia scoparia), nutsedge, yellow (yellow nutsedge, Cyperus esculentus), cocklebur (common cocklebur, Xanthium strumarium), smartweed (ladysthumb smartweed, Polygonum Persicaria) and beggarticks (hairy beggarticks, Bidens pilosa), were planted into a silt loam soil and treated preemergence with test chemicals formulated in a non-phytotoxic solvent mixture which included a surfactant. Treated plants and controls were maintained in a greenhouse for 21 days, after which time all species were compared to controls and visually evaluated. Plant response ratings, summarized in Table E, are based on a scale of 0 to 100 where 0 is no effect and 100 is complete control. A dash (-) response means no test result.

nightshade = test: Test C pre-/postemergence herbicide test; assay type: in vivo, Solanum ptycanthum; settings: Preemergence
Description: Seeds of plant species selected from blackgrass (Alopecurus myosuroides), ryegrass, Italian (Italian ryegrass, Lolium multiflorum), wheat (winter wheat, Triticum aestivum), galium (catchweed bedstraw, Galium aparine), corn (Zea mays), crabgrass, large (large crabgrass, Digitaria sanguinalis), foxtail, giant (giant foxtail, Setaria faberii), johnsongrass (Sorghum halepense), lambsquarters (Chenopodium album), morningglory (Ipomoea coccinea), nutsedge, yellow (yellow nutsedge, Cyperus esculentus), pigweed (Amaranthus retroflexus), ragweed (common ragweed, Ambrosia elatior), soybean (Glycine max), barnyardgrass (Echinochloa crus-galli), oilseed rape (Brassica napus), waterhemp (common waterhemp, Amaranthus rudis), kochia (Kochia scoparia), oat, wild (wild oat, Avena fatua), surinam grass (Brachiaria decumbens), foxtail, green (green foxtail, Setaria viridis), goosegrass (Eleusine indica), bromegrass, downy (downy bromegrass, Bromus tectorum), nightshade (eastern black nightshade, Solanum ptycanthum), cocklebur (common cocklebur, Xanthium strumarium), cupgrass, woolly (woolly cupgrass, Eriochloa villosa), bermudagrass (Cynodon dactylon), sunflower, (common oilseed sunflower, Helianthus annuus), Russian thistle (Salsola kali) and velvetleaf (Abutilon theophrasti) were planted into a blend of loam soil and sand and treated preemergence with test chemicals formulated in a non-phytotoxic solvent mixture which included a surfactant. At the same time, plants selected from these crop and weed species and also barley (winter barley, Hordeum vulgare), […]), chickweed (common chickweed, Stellaria media), deadnettle (henbit deadnettle, Lamium amplexicaule), and canarygrass (littleseed canarygrass, Phalaris minor) were planted in pots containing Redi-Earth® planting medium (Scotts Company, 14111 Scottslawn Road, Marysville, Ohio 43041) comprising spaghnum peat moss, vermiculite, wetting agent and starter nutrients and treated with postemergence applications of test chemicals formulated in the same manner. Plants ranged in height from 2 to 18 cm (1- to 4-leaf stage) for postemergence treatments. Treated plants and controls were maintained in a greenhouse for 13 to 15 days, after which time all species were compared to controls and visually evaluated. Plant response ratings, summarized in Table C, are based on a scale of 0 to 100 where 0 is no effect and 100 is complete control. A dash (-) response means no test result.

[1] = 125 g ai/ha, scale 0 to 100 (0 no effect, 100 complete control)

| SMILES | Plant response rating (lambsquarters; Postemergence, 31 g ai/ha) | Plant response rating (lambsquarters; Postemergence, 62 g ai/ha) | Plant response rating (lambsquarters; Postemergence, 125 g ai/ha) | Plant response rating (lambsquarters; Postemergence, 250 g ai/ha) | Plant response rating, Lambsquarters (lambsquarters; Preemergence, 62 g ai/ha) | Plant response rating, Lambsquarters (lambsquarters; Preemergence, 31 g ai/ha) | Plant response rating (lambsquarters; Preemergence, 125 g ai/ha) | Plant response rating (lambsquarters; Preemergence, 250 g ai/ha) | Plant response rating, Velvetleaf (velvetleaf; 31 g ai/ha) | Plant response rating, Velvetleaf (velvetleaf; 62 g ai/ha) | Plant response rating, Velvetleaf (velvetleaf; 125 g ai/ha) | Plant response rating, Velvetleaf (velvetleaf; 250 g ai/ha) | Plant response rating, Nightshade (nightshade; 62 g ai/ha, scale 0 to 100) | Plant response rating, Nightshade (nightshade; [1]) | also measured |
| --- | --- | --- | --- | --- | --- | --- | --- | --- | --- | --- | --- | --- | --- | --- | --- |
| O=C1NCC(c2ccc(F)c(F)c2)C1C(=O)Nc1ccccc1C(F)(F)F (racemic) [Compound 6] | 10 | 20 | 20 | 30 | 0 | 0 | 0 | 0 | – | – | – | – | – | – | Plant response rating (lambsquarters; Postemergence, 16 g ai/ha): 0; Plant response rating, Lambsquarters (lambsquarters; Preemergence, 16 g ai/ha): 0 |
| O=C1NCC(c2ccc(Cl)c(Cl)c2)C1C(=O)Nc1ccccc1F (racemic) [Compound 14] | – | – | – | – | – | – | – | – | 0 | 0 | 0 | 0 | 0 | – | Plant response rating, Velvetleaf (velvetleaf; 16 g ai/ha): 0 |
| O=C1NCC(c2ccc(F)c(C(F)(F)F)c2)C1C(=O)Nc1cccc(F)c1F (racemic) [Compound 77] | – | – | – | – | 85 | 85 | 90 | 90 | – | – | – | – | – | – | – |
| O=C1NCC(c2ccc(C(F)(F)F)cc2)C1C(=O)Nc1cccc(F)c1F (racemic) [Compound 202] | 65 | 60 | 70 | 75 | 85 | 80 | 85 | 85 | 0 | 0 | 0 | 40 | – | – | – |
| O=C1NCC(c2ccc(OC(F)F)cc2)C1C(=O)Nc1cccc(F)c1F (racemic) [Compound 350] | – | – | – | – | – | – | – | – | 0 | 0 | 0 | 0 | – | – | – |
| O=C1NCCC1C(=O)N(c1ccc(F)c(F)c1)c1ccccc1F (centres unmarked) [Compound 5, N-(3,4-difluorophenyl)-N-(2-fluorophenyl)-2-oxo-3-pyrrolidinecarboxamide] | – | – | – | – | – | – | – | – | – | – | – | – | 45 | 45 | – |
| O=C1NCC(c2cc(F)c(F)c(F)c2)C1C(=O)Nc1cccc(F)c1F (centres unmarked) [Compound 48] | – | – | – | – | – | – | – | – | – | – | – | – | 0 | 0 | Plant response rating, Nightshade (nightshade; 16 g ai/ha, scale 0 to 100): 0 |
| O=C1NCC(c2cc(F)c(F)cc2F)C1C(=O)Nc1cccc(F)c1F (centres unmarked) [Compound 50] | 5 | 5 | 20 | – | 0 | 0 | 0 | – | – | – | – | – | – | – | Plant response rating (lambsquarters; Postemergence, 16 g ai/ha): 5; Plant response rating, Lambsquarters (lambsquarters; Preemergence, 16 g ai/ha): 0 |
| O=C1NCC(c2ccc(Cl)c(F)c2)C1C(=O)Nc1cccc(F)c1F (centres unmarked) [Compound 52] | 0 | 0 | 30 | 30 | 0 | 0 | 20 | 20 | – | – | – | – | 0 | 0 | Plant response rating (lambsquarters; Postemergence, 16 g ai/ha): 0; Plant response rating, Lambsquarters (lambsquarters; Preemergence, 16 g ai/ha): 0 |
| O=C1NCC(c2ccc(F)c(Cl)c2)C1C(=O)Nc1ccccc1F (centres unmarked) [Compound 60] | – | – | – | – | – | – | – | – | – | – | – | – | 0 | 0 | – |
| O=C1NCC(c2cccc(OC(F)(F)F)c2)C1C(=O)Nc1ccccc1F (centres unmarked) [Compound 69] | – | – | – | – | – | – | – | – | – | – | – | – | 0 | 0 | Nightshade plant response rating (nightshade; 31 g ai/ha, scale 0 to 100, 0 is no effect and 100 is complete control): 0; Plant response rating (scale of 0 to 100), Nightshade (nightshade; 250 g ai/ha): 0 |
| O=C1NCC(c2ccc(C(F)(F)F)cc2)C1C(=O)Nc1cccc(F)c1F (centres unmarked) [Compound 80, N-(2,3-difluorophenyl)-2-oxo-4-[4-(trifluoromethyl)phenyl]-3-pyrrolidinecarboxamide] | 45 | 45 | 40 | 35 | 80 | 85 | 90 | 90 | 0 | 0 | 0 | 0 | – | – | Plant response rating, Velvetleaf (velvetleaf; 16 g ai/ha): 0 |
| O=C1NC[C@H](c2cccc(C(F)(F)F)c2)[C@H]1C(=O)Nc1ccccc1F [Compound 204, (3R,4S)—N-(2-fluorophenyl)-2-oxo-4-[3-(trifluoromethyl)phenyl]-3-pyrrolidinecarboxamide] | – | – | – | – | 30 | 35 | – | 90 | 0 | 0 | 0 | 0 | – | – | Plant response rating, Lambsquarters (lambsquarters; Preemergence, 125 g ai/ha): 65 |
| O=C1NC[C@H](c2cccc(C(F)(F)F)c2)[C@H]1C(=O)Nc1cccc(F)c1F [Compound 206] | – | – | – | – | 80 | 50 | – | 90 | 0 | 35 | 30 | 50 | – | – | Plant response rating, Lambsquarters (lambsquarters; Preemergence, 125 g ai/ha): 85 |
| O=C1NCC(c2ccc(C(F)(F)F)cc2)C1C(=O)Nc1ccccc1F (centres unmarked) [Compound 231] | 55 | 50 | 70 | 75 | 80 | 45 | – | 90 | – | – | – | – | – | – | Plant response rating, Lambsquarters (lambsquarters; Preemergence, 125 g ai/ha): 90 |
